Results from patent US20240246964A1 (Arbutus Biopharma Corporation, priority 2021, published 2024).
pEC50: −log10 of the molar value.

Target: human PD-L1 (Homo sapiens (Human), UniProt Q9NZQ7)
Assay: T cell activation luciferase reporter cell culture system (T Cell Activation Assay)
Format: cell-based
Settings: luciferase reporter assay; PD-L1 aAPC/CHO-K1 cells with PD-1 effector Jurkat T cells

Sequence of human PD-L1 (Q9NZQ7 19-290): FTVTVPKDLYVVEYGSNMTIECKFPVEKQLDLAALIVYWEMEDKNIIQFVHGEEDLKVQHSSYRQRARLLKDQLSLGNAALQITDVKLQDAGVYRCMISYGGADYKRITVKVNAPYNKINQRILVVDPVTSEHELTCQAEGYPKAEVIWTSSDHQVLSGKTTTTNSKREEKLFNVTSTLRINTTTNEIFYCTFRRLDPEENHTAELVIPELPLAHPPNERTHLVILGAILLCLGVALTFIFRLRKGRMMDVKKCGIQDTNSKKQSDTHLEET

Row | SMILES | pEC50
1 | COc1cc(-c2nccc(-c3cccc(-c4cc(Cl)c(CNC[C@@H]5CCC(=O)N5)c(OC)n4)c3Cl)c2Cl)ccc1CN(C)C[C@H](C)O [Cmpd 71, (S)-5-((((4-chloro-6-(2-chloro-3-(3-chloro-2-(4-((((S)-2-hydroxypropyl)(methyl)amino)methyl)-3-methoxyphenyl)pyridin-4-yl)phenyl)-2-methoxypyridin-3-yl)methyl)amino)methyl)pyrrolidin-2-one] | 7.51
2 | COc1nc(-c2cccc(-c3ccnc(-c4cc(Cl)c5c(c4)CCN(CCCF)C5)c3Cl)c2Cl)ccc1CNC[C@@H]1CCC(=O)N1 [Cmpd 72, (S)-5-((((6-(2-chloro-3-(3-chloro-2-(8-chloro-2-(3-fluoropropyl)-1,2,3,4-tetrahydroisoquinolin-6-yl)pyridin-4-yl)phenyl)-2-methoxypyridin-3-yl)methyl)amino)methyl)pyrrolidin-2-one] | 6.41
3 | COc1cc(-c2nccc(-c3cccc(-c4ccc(CNC[C@@H]5CCC(=O)N5)c(OC)n4)c3Cl)c2Cl)cc2c1CN(CCC1(O)CC1)CC2 [Cmpd 74, (S)-5-((((6-(2-chloro-3-(3-chloro-2-(2-(2-(1-hydroxycyclopropyl)ethyl)-8-methoxy-1,2,3,4-tetrahydroisoquinolin-6-yl)pyridin-4-yl)phenyl)-2-methoxypyridin-3-yl)methyl)amino)methyl)pyrrolidin-2-one] | 7.15
4 | COc1cc(-c2nccc(-c3cccc(-c4ccc(CNC[C@@H]5CCC(=O)N5)c(OC)n4)c3Cl)c2Cl)ccc1CN(C)C[C@H](C)O [Cmpd 75, (S)-5-((((6-(2-chloro-3-(3-chloro-2-(4-((((S)-2-hydroxypropyl)(methyl)amino)methyl)-3-methoxyphenyl)pyridin-4-yl)phenyl)-2-methoxypyridin-3-yl)methyl)amino)methyl)pyrrolidin-2-one] | 7.80
5 | COc1cc(-c2nccc(-c3cccc(-c4ccc(CNC[C@@H]5CCC(=O)N5)c(OC)n4)c3Cl)c2Cl)ccc1CN1CC[C@H](C(=O)OC(C)C)C1 [Cmpd 76, isopropyl (S)-1-(4-(3-chloro-4-(2-chloro-3-(6-methoxy-5-(((((S)-5-oxopyrrolidin-2-yl)methyl)amino)methyl)pyridin-2-yl)phenyl)pyridin-2-yl)-2-methoxybenzyl)pyrrolidine-3-carboxylate] | 7.05
6 | COc1cc(-c2nccc(-c3cccc(-c4ccc(CNC[C@@H]5CCC(=O)N5)c(OC)n4)c3Cl)c2Cl)ccc1CN1CC[C@H](C(=O)O)C1 [Cmpd 77, (S)-1-(4-(3-chloro-4-(2-chloro-3-(6-methoxy-5-(((((S)-5-oxopyrrolidin-2-yl)methyl)amino)methyl)pyridin-2-yl)phenyl)pyridin-2-yl)-2-methoxybenzyl)pyrrolidine-3-carboxylic acid] | 6.98
7 | COc1cc(-c2nccc(-c3cccc(-c4ccc(CNC[C@@H]5CCC(=O)N5)c(OC)n4)c3Cl)c2Cl)ccc1CN1CCC[C@H]1C(=O)O [Cmpd 78, (4-(3-chloro-4-(2-chloro-3-(6-methoxy-5-(((((S)-5-oxopyrrolidin-2-yl)methyl)amino)methyl)pyridin-2-yl)phenyl)pyridin-2-yl)-2-methoxybenzyl)-L-proline] | 6.69
8 | COc1cc(-c2nccc(-c3cccc(-c4ccc(CNC[C@@H]5CCC(=O)N5)c(OC)n4)c3Cl)c2Cl)cc(F)c1CN[C@H]1C[C@](C)(O)C1 [Cmpd 79] | 7.30

Other lines, results leading:

Row | pEC50 | SMILES
9 | 7.34 | COc1cc(-c2nccc(-c3cccc(-c4ccc(CNC[C@@H]5CCC(=O)N5)c(OC)n4)c3Cl)c2Cl)cc(F)c1CNC[C@H](C)O [Cmpd 80, (S)-5-((((6-(2-chloro-3-(3-chloro-2-(3-fluoro-4-((((S)-2-hydroxypropyl)amino)methyl)-5-methoxyphenyl)pyridin-4-yl)phenyl)-2-methoxypyridin-3-yl)methyl)amino)methyl)pyrrolidin-2-one]
10 | 7.50 | COc1cc(-c2nccc(-c3cccc(-c4ccc(CNC[C@@H]5CCC(=O)N5)c(OC)n4)c3Cl)c2Cl)cc(F)c1CNC[C@@H](C)O [Cmpd 81, (S)-5-((((6-(2-chloro-3-(3-chloro-2-(3-fluoro-4-((((R)-2-hydroxypropyl)amino)methyl)-5-methoxyphenyl)pyridin-4-yl)phenyl)-2-methoxypyridin-3-yl)methyl)amino)methyl)pyrrolidin-2-one]
11 | 7.22 | COc1cc(-c2nccc(-c3cccc(-c4ccc(CNC[C@@H]5CCC(=O)N5)c(OC)n4)c3Cl)c2Cl)cc(F)c1CNC(C)C [Cmpd 82, (S)-5-((((6-(2-chloro-3-(3-chloro-2-(3-fluoro-4-((isopropylamino)methyl)-5-methoxyphenyl)pyridin-4-yl)phenyl)-2-methoxypyridin-3-yl)methyl)amino)methyl)pyrrolidin-2-one]
12 | 7.18 | COc1cc(-c2nccc(-c3cccc(-c4ccc(CNC[C@@H]5CCC(=O)N5)c(OC)n4)c3Cl)c2Cl)cc(F)c1CNCC(C)C [Cmpd 83, (S)-5-((((6-(2-chloro-3-(3-chloro-2-(3-fluoro-4-((isobutylamino)methyl)-5-methoxyphenyl)pyridin-4-yl)phenyl)-2-methoxypyridin-3-yl)methyl)amino)methyl)pyrrolidin-2-one]
13 | 7.15 | COc1cc(-c2nccc(-c3cccc(-c4ccc(CNCCO)c(OC)n4)c3Cl)c2Cl)cc2c1CN(CCCF)CC2 [Cmpd 84, 2-(((6-(2-chloro-3-(3-chloro-2-(2-(3-fluoropropyl)-8-methoxy-1,2,3,4-tetrahydroisoquinolin-6-yl)pyridin-4-yl)phenyl)-2-methoxypyridin-3-yl)methyl)amino)ethan-1-ol]
14 | 6.85 | COc1cc(-c2nccc(-c3cccc(-c4ccc(CNCCO)c(OC)n4)c3Cl)c2Cl)cc2c1CN(CCC1CCNCC1)CC2 [Cmpd 85, 2-(((6-(2-chloro-3-(3-chloro-2-(8-methoxy-2-(2-(piperidin-4-yl)ethyl)-1,2,3,4-tetrahydroisoquinolin-6-yl)pyridin-4-yl)phenyl)-2-methoxypyridin-3-yl)methyl)amino)ethan-1-ol]
15 | 7.56 | COc1cc(-c2nccc(-c3cccc(-c4cc(Cl)c(CNC[C@@H]5CCC(=O)N5)c(OC)n4)c3Cl)c2Cl)cc2c1CN(C[C@H](C)O)CC2 [Cmpd 86, (S)-5-((((4-chloro-6-(2-chloro-3-(3-chloro-2-(2-((S)-2-hydroxypropyl)-8-methoxy-1,2,3,4-tetrahydroisoquinolin-6-yl)pyridin-4-yl)phenyl)-2-methoxypyridin-3-yl)methyl)amino)methyl)pyrrolidin-2-one]
16 | 7.60 | COc1cc(-c2nccc(-c3cccc(-c4ccc(CNC[C@@H]5CCC(=O)N5)c(OC)n4)c3Cl)c2Cl)ccc1CN1CC2(CNC(=O)C2)C1 [Cmpd 88, (S)-2-(4-(3-chloro-4-(2-chloro-3-(6-methoxy-5-((((5-oxopyrrolidin-2-yl)methyl)amino)methyl)pyridin-2-yl)phenyl)pyridin-2-yl)-2-methoxybenzyl)-2,6-diazaspiro[3.4]octan-7-one]
17 | 8.00 | COc1cc(-c2nccc(-c3cccc(-c4ccc5c(CN(C)C6CCN(C(C)=O)CC6)cn(C)c5n4)c3Cl)c2Cl)ccc1CNC[C@@H]1CCC(=O)N1 [Cmpd 92, (S)-5-(((4-(4-(3-(3-(((1-acetylpiperidin-4-yl)(methyl)amino)methyl)-1-methyl-1H-pyrrolo[2,3-b]pyridin-6-yl)-2-chlorophenyl)-3-chloropyridin-2-yl)-2-methoxybenzyl)amino)methyl)pyrrolidin-2-one]
